One substance from publication PMC12528394, “Screening and evaluation of therapeutic candidates with vascular protective effects in zebrafish models of diabetic retinopathy” (Scientific Reports, 2025) can be followed below.

What all share (assay type): in vivo
One experiment concerns VEGF. The experiment can be described thus: RT-PCR mRNA expression in zebrafish DR model. The conditions noted are these: 100 µg/ml, 130 mM glucose, eyes at 6 dpf, RT-PCR normalized to GAPDH, triplicate. The method, then:
(§1) The total RNA were extracted from the eyes at 6 dpf using the mRNA kit (PureLink™ RNA Mini Kit, Ambion). The mRNA was measured with a NanoDrop spectrophotometer (Thermo Scientific, Madison, WI, USA) for quantitative analysis and a cDNA synthesis with a SuperScript VILO cDNA Synthesis Kit (Thermo Scientific, Carlsbad, CA, USA). The cDNA was amplified by PCR with zebrafish primer GAPDH, VEGF, Tie2 and Ang-1 with SYBR Green Master Mix (Thermo Scientific, Carlsbad, CA, USA). The mRNA was detected by ViiA7 Real-Time PCR system (Thermo Scientific, Carlsbad, CA, USA). The values were normalized to GAPDH expression. Samples were analyzed in triplicate.

The next experiment has as its system Tie2. Briefly: RT-PCR mRNA expression in zebrafish DR model. The following applies: 100 µg/ml, 130 mM glucose, eyes at 6 dpf, RT-PCR normalized to GAPDH, triplicate. The method, then: as §1
The next experiment concerns Angiopoietin-1. The experiment can be described thus: RT-PCR mRNA expression in zebrafish DR model. The following applies: 100 µg/ml, 130 mM glucose, eyes at 6 dpf, RT-PCR normalized to GAPDH, triplicate. The method, then:
as §1

A further experiment concerns zebrafish DR model. Briefly: Zebrafish diabetic retinopathy model (130 mM glucose): survival and hyaloid-retinal vessel diameter. The conditions noted are these: 100 µg/ml, 3 to 6 dpf, n = 40 per group. The method, then:
On day 3 post-fertilization, zebrafish embryos with normal differentiation were treated with 130 mM glucose in a 24-well plate (5 embryos per well) to induce a diabetic retinopathy model. Peptides 1, 2, and 3 were administered at concentrations of 20, 100, 200, and 400 µg/ml. On day 6 post-fertilization, embryos were fixed with 4% paraformaldehyde and the hyaloid-retina vessels were isolated. Further experimental details can be found in previous studies.

aflibercept: the “VEGF mRNA level versus high-glucose group (in words)” value with VEGF was “significantly reduced”. Further, the “Tie2 mRNA level versus high-glucose group (in words)” value with Tie2 is listed as “partially restored”. The “Angiopoietin-1 mRNA level versus high-glucose group (in words)” value with Angiopoietin-1 is “partially restored”. For the same substance, the “retinal vessel thickness relative to glucose-only group (in words)” value in the experiment on zebrafish DR model is “effectively reduced”.
